Measurements reported in BigSolDB 2.1.

CC[C@@H](C(N)=O)N1CCCC1=O
solubility (mole fraction)
Settings	in 1,4-dioxane	in acetone	in acetonitrile	in cyclohexane	in ethanol	in ethyl acetate	in isopropanol	in methanol	in n-propanol	in toluene
283.15 K	–	0.00698	0.00909	1.37e-05	0.0384	0.00424	0.0115	0.0814	0.0167	0.00122
288.15 K	0.00718	0.00887	0.0113	1.92e-05	0.0459	0.00539	0.0147	0.0974	0.0207	0.00167
293.15 K	0.00902	0.0111	0.0137	2.61e-05	0.0546	0.00676	0.0185	0.115	0.0252	0.0022
298.15 K	0.0112	0.014	0.0168	3.64e-05	0.0643	0.00847	0.0229	0.136	0.0303	0.00299
303.15 K	0.014	0.0175	0.0203	4.91e-05	0.0758	0.0104	0.0286	0.158	0.0362	0.00393
308.15 K	0.0173	0.0217	0.0245	6.61e-05	0.0885	0.0129	0.0354	0.182	0.0434	0.00524
313.15 K	0.0214	0.0268	0.0292	8.95e-05	0.103	0.0158	0.0435	0.209	0.052	0.00699
318.15 K	0.0263	0.033	0.035	0.00012	0.12	0.0194	0.0537	0.239	0.0614	0.00947
323.15 K	0.0322	0.0405	0.0416	0.00016	0.138	0.0236	0.0663	0.27	0.0729	0.0129
